What was measured:
HBV [1] = test: serum HBV DNA level during antiviral therapy, patient A (post-OLT); assay type: in vivo, Hepatitis B Virus
Excerpt: The patient was transplanted because of end-stage liver failure due to chronic HBV infection. The initial post transplant course was unremarkable but by 5 months there was evidence of recurrent infection and very high levels of viral replication and deteriorating liver function (12). The histological picture was consistent with fibrosing cholestatic hepatitis. Antiviral treatment was commenced approximately 6 months post-OLT. Initially, the patient received intravenous (iv) ganciclovir (GCV; 10 mg/kg/day) in combination with iv foscarnet (PFF; 50-125 mg/kg/day; the dose depending on renal function) (12). This is the treatment of GCV+PFF described in FIG. 2 which lasted for 86 days. Maintenance iv GCV (3.3-6.7 mg/kg/day) three times per week was commenced on day 87 of antiviral treatment (GCV in FIG. 2). Oral famciclovir (250 mg, twice daily) was commenced on day 446 of therapy (FCV [I] in FIG. 2) which was increased to 500 mg twice daily (FCV [II] in […]) on day 500. The patient is currently on this treatment regime. The clinical and virological details of this patient preceding famciclovir therapy have been reported (12).
Serum samples were routinely collected and stored at −70° C. Informed consent was obtained from the patient to use these samples for research purposes. […] The 5 samples chosen for additional studies cover a period of almost four years.
Hepatitis B surface antigen (HbsAg), hepatitis B e antigen (HbeAg), anti-HBe, hepatitis B core antigen (HbcAg) specific IgG and IgM, hepatitis A specific IgM, hepatitis delta antigen and antibody, and anti-hepatitis C virus antibody were measured using commercially available immunoassays (Abbott Laboratories, North Chicago, Ill.). Only the HBV markers were positive. Hepatitis B viral DNA levels were measured and quantified using a capture hybridisation assay according to the manufacturer's directions (Digene Diagnostics Inc., Beltsville, Md.).
This reduction in viraemia was associated with clinical, biochemical and histological improvement (12). […] However, the level of HBV DNA gradually rose over time from 3,000 pg/ml on day 600 (154 days of famciclovir), to 8,800 pg/ml on day 816 (370 days famciclovir), peaking at 29,000 pg/ml on day 1302 (856 days of famciclovir), then stabilising at around 12,000 pg/ml on day 1329 (883 days of famciclovir). […] There was a 1.5 to 2 fold rise in ALT levels over the same time interval (FIG. 2) and no change in clinical status.

duck HBV = settings: in vitro; cited from earlier work
[2] = system: HBV DNA polymerase-reverse transcriptase; settings: in vitro; cited from earlier work
HBV [3] = test: response to antiviral treatment, patient C; assay type: in vivo, Hepatitis B Virus
Excerpt: Patient B was undergoing long term famciclovir treatment (>850 days). The amino acid change selected during famciclovir treatment is shown as HBV (patient B) in FIG. 5. […] The HBV isolated during FCV treatment from patient C, is shown as HBV (patient C-FCV). All 3TC resistance mutations which developed during treatment with 3TC is shown as HBV (patient C-3TC). […] A mutation of Met 550 to Ile in the YMDD motif was detected from HBV isolated 32 days (333 days post treatment) after the HBV containing the Thr-Ser substitution was isolated.

duck HBV virus = settings: oral, in vivo; cited from earlier work
HBV [4] = settings: in man, patient with severe hepatitis B following OLT; cited from earlier work
HBV DNA polymerase [5] = target: T1, HBV DNA polymerase (Hepatitis B virus genotype D subtype ayw, UniProt P03156, L515M/V508L); test: endogenous HBV DNA polymerase assay, PCV-TP sensitivity; assay type: biochemical; settings: 100 μmol/L PCV-TP, serum HBV of patient A
T1 construct: Small aliquots of the suspension were assayed for endogenous HBV DNA polymerase activity; from tissue; host or cells: patient serum; virions pelleted through a 20% sucrose cushion and treated with Triton X-100
T1 sequence (P03156 whole entry V508L/L515M): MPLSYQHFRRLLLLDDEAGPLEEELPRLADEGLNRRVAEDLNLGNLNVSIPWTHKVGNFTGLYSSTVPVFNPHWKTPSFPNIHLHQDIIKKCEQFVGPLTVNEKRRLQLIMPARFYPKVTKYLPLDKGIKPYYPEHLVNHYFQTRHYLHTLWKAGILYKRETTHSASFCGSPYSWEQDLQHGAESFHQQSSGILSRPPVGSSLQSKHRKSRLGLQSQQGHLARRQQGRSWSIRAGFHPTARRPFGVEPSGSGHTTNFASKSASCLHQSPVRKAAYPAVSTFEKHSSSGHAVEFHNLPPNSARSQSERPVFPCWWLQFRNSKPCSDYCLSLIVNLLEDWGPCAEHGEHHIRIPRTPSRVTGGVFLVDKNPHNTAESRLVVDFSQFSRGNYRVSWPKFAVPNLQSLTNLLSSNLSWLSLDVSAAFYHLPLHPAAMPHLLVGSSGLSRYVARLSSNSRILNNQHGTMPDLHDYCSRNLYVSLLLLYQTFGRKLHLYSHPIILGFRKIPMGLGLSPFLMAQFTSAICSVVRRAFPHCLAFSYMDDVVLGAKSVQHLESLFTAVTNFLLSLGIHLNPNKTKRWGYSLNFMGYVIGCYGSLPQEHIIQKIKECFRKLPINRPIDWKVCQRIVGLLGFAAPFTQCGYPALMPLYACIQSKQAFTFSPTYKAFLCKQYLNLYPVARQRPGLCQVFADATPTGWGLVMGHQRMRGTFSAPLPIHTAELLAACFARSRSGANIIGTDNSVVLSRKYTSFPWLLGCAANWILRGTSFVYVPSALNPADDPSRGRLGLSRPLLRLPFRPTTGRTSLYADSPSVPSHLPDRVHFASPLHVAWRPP
Experimental: (§1) Samples of serum (100 μl) were applied to a 20% w/v sucrose cushion in TNE (20 mmol/L Tris-HCl pH 7.4, 150 mmol/L NaCl2 1 mmol/L EDTA) and centrifuged at 200,000 g for 3 hr at 10° C. using an SW41 rotor in a Beckman Model L8 ultracentrifugc. The pellet was resuspended in 50 mmol/L TRIS-HCl pH 7.5 containing 1.5% v/v Triton-X100, 100 mmol/L Kcl and 0.01% v/v 2-mercaptoethanol and allowed to stand overnight at 4° C. Small aliquots of the suspension were assayed for endogenous HBV DNA polymerase activity essentially as described by Price et al (16). Each assay was performed in a total volume of 30 μl which contained 20 μl of the partly purified HBV and (final concentrations) 30 mmol/L Tris-HCl pH 7.5, 30 mmol/L MgCl2, 10 μmol/L each dATP, dTTP and dGTP, and 0.01 μM [α-^32P]-dCTP (3,000 Ci/mmol) (Dupont NEN, Boston, Mass.). To test for penciclovir triphosphate (PCV-TP) sensitivity, paired assays were performed on each sample, with an excess (100 μmol/L penciclovir-triphosphate included in the reaction mixture in one assay of each pair. After 2 hr at 37° C., reactions were stopped by spotting 20 μl aliquots of each reaction mix onto 25 mm diameter glass fibre discs (Advantex, Tokyo, Japan) which had been pre-soaked in 10% w/v trichloroacetic acid (TCA). Discs were dried before washing in ice-cold 10% w/v TCA containing 10 mmol/L sodium pyrophosphate.
(§2) Three further 10 min. washes in cold 5% v/v TCA followed. The washed discs were finally rinsed in absolute ethanol, air dried, and counted for radioactivity. Inhibition of HBV DNA polymerase activity by PCV-TP was expressed as the percentage difference in activity in the assay mix containing PCV-TP compared to the matched control. Because of limited sample amounts, it was not possible to standardize enzyme activity or to perform replicate assays. Despite the inherent variability of the assay, a general time related decrease in sensitivity of the HBV DNA polymerase to PCV-TP was evident (see Table 1).

HBV DNA polymerase [6] = test: as above; assay type: biochemical, Hepatitis B Virus; settings: 100 μmol/L PCV-TP, serum HBV of patient A
Experimental: as §1, §2

Question: With Nc1nc(O)c2ncn(COC(CO)CO)c2n1 [GCV, ganciclovir] as the compound, how does the “levels of HBV DNA” value (HBV [1]; maintenance iv GCV from day 87, over 359 days) read?
Answer: fluctuating levels of HBV DNA

Question: What does the source list for Nc1nc2c(ncn2CCC(CO)CO)c(=O)[nH]1 [Peniciclovir, penciclovir]?
Answer: activity against duck HBV DNA synthesis (duck HBV): potent inhibitory activity; HBV DNA polymerase-reverse transcriptase activity [2]: inhibit

Question: For CC(=O)OCC(CCn1cnc2cnc(N)nc21)COC(C)=O [famciclovir], which response to treatment (HBV [3]) is on record?
Answer: did not respond

Question: And the “intra-hepatic replication of duck HBV virus” value (duck HBV virus)?
Answer: inhibit

Question: And the “level of HBV DNA” value (HBV [1]; day 600 (154 days of famciclovir))?
Answer: 3,000 pg/ml

Question: What about the “level of HBV DNA” value (HBV [1]; day 816 (370 days famciclovir)) of the same compound?
Answer: 8,800 pg/ml

Question: And the “level of HBV DNA” value (HBV [1]; day 1302 (856 days of famciclovir), peak)?
Answer: 29,000 pg/ml

Question: And the “level of HBV DNA” value (HBV [1]; day 1329 (883 days of famciclovir))?
Answer: around 12,000 pg/ml

Question: What about the “HBV DNA change” value (HBV [1]; dose increase to 500 mg twice daily on day 500 (FCV[II])) of the same compound?
Answer: decrease in HBV DNA

Question: And the “HBV DNA change” value (HBV [1]; switch to oral famciclovir 250 mg twice daily on day 446 (FCV[I]))?
Answer: rise in HBV DNA

Question: What about the “HBV DNA replication” value (HBV [4]) of the same compound?
Answer: reduce HBV DNA replication

Question: Which results are given for penciclovir triphosphate [PCV-TP]?
Answer: Inhibition of HBV DNA polymerase by PCV-TP (HBV DNA polymerase [5]; day 816 of antiviral treatment (370 days famciclovir), Val519Leu/Leu526Met): 0%; Inhibition of HBV DNA polymerase by PCV-TP (HBV DNA polymerase [5]; day 1329 of antiviral treatment (883 days famciclovir)): 0%; Inhibition of HBV DNA polymerase by PCV-TP (HBV DNA polymerase [6]; day 600 of antiviral treatment (154 days famciclovir)): 30%; Inhibition of HBV DNA polymerase by PCV-TP (HBV DNA polymerase [6]; pretreatment sample): 40%

Reference: USRE40233E1, “Viral variants and methods for detecting same” (Melbourne Health, priority 1996, dated 2008)
